{"source": "patent US20250090498A1", "about": "“TREATMENT OF PRIMARY CTLA-4 CHECKPOINT RELATED IMMUNODEFICIENCIES” (ADIENNE PHARMA & BIOTECH SA, priority 2023, published 2025)", "key": {"[1]": {"tested_on": "DSS+anti-CTLA-4-induced colitis", "assay": "DSS+anti-CTLA-4-induced colitis in C57BL/6 mice", "format": "in vivo", "conditions": "for lymphocytic infiltration, dose dependence: 0.09-0.045-0.022 mg/mouse (4.5, 2.25 and 1.12 mg/kg), lung, spleen, liver, kidney; for efficacy dose: intragastrically every other day, Eudragit formulations", "procedure": "In trials, C57BL/6 mice received dextran sulfate sodium (DSS) (3%) in their drinking water and 100 μg anti-CTLA-4 monoclonal antibody (mAb) or isotype control antibody intraperitoneally, at days 0, 4 and 8 following the DSS administration as indicated in FIG. 2A. DSS is a water soluble, negatively charged sulfated polysaccharide with a highly variable molecular weight ranging from 5 to 1400 kDa. […] Eudragit-formulated 3-IAld (Puccetti et al, 2018) was given at 18 mg/kg 3-IAld intragastrically every other day, as illustrated in FIG. 2A. Animals were monitored daily for appearance of diarrhea, fecal blood, loss of body weight and survival. A week after DSS treatment (14 days after initiation of treatment), at the time at which the model recapitulates the human disease (Manicassamy et al, 2014), surviving mice were sacrificed, and the colon was excised and evaluated for macroscopic damage and local immune parameters.\nIn trials, C57BL/6 mice received dextran sulfate sodium (DSS) (3%) in their drinking water and 100 μg anti-CTLA-4 monoclonal antibody (mAb) or isotype control antibody intraperitoneally, at days 0, 4 and 8 following the DSS administration as indicated in FIG. 17A. Eudragit-formulated 1-methylindole-3-carboxylic acid was given intragastrically every other day, at scaling doses of 0.09, 0.18, or 0.36 mg/mouse (FIG. 17A). Animals were monitored daily for the appearance of diarrhea, fecal blood and loss of body weight. A week after DSS treatment (14 days after initiation of treatment), at the time at which the murine model recapitulates the human disease (Manicassamy et al, 2014), surviving mice were sacrificed and the colon was excised and evaluated for macroscopic damage and local immune parameters. […] CTLA-4 haploinsufficiency typically presents with extensive CD3+T cell infiltration across different organs (Kuehn et al, 2014—Schubert et al, 2014—Schwab et al, 2018).\nIn the DSS+anti-CTLA-4-induced colitis, mice were treated intragastrically (Eudragit formulations) every other day starting 4 days before DSS treatment and continuing until mice sacrifice. Mice were evaluated for disease activity in terms of histopathology, parameters of barrier permeability function and intestinal inflammation.\nAssessment of scaling doses of 0.09-0.045-0.022 mg/mouse (corresponding to 4.5, 2.25 and 1.12 mg/kg) in the murine model of immune-mediated colitis (DSS+anti-CTLA-4) was performed as shown in Table 2 below.\nC57BL/6 mice were treated with DSS in drinking water for 1 week followed by a recovery period of another week and administered […] of anti-CTLA-4 mAb and 1ME3CA as depicted in the experimental schedule in FIG. 23A. Mice were evaluated for weight change (FIG. 23B), disease activity index (FIG. 23C), clinical morbidity and rectal bleeding (FIG. 23D), colon and ileum histology (FIG. 23E) (PAS staining), ×40 magnification (scale bars, 100 m). Each in vivo experiment includes four to six mice per group (20 mice in each experiment).\nPhotographs were taken with a high-resolution microscope, lung and spleen ×10 magnification (scale bars, 400 m) and liver and kidney ×20 magnification (scale bars, 200 m)."}, "[2]": {"assay": "preliminary pharmacokinetics in serum after Eudragit-formulated 3-IAld (90% 3-IAld/10% 13C8-labeled 3-IAld), mass spectrometry", "format": "in vivo", "procedure": "Primary pharmacodynamics studies have been performed. The mode of action of 3-IAld occurs upon binding to AhR, both in vitro and in vivo. In vitro, 3-IAld induced luciferase activity in the H1L1.1c2 cell line containing a stably-transfected AhR-responsive firefly luciferase at the dose range […] (Zelante et al, 2013). […] Preliminary pharmacokinetics data have been obtained by administration of Eudragit-formulated 3-IAld in the composition 90% 3-IAld/10% 13C8-labeled 3-IAld and targeted/untargeted analysis by mass spectrometry in serum at different times (30 minutes (min), 1 hour (h), 2 h, 4.5h, 6 h, 24h). […] The presence of indole-3-formic acid was also confirmed with labelled 3-IAld (FIG. 13E), showing a similar kinetics and a peak level of about 25 μM at 30 min."}, "[3]": {"assay": "toxicology, up to 3 weeks, PAS tissue pathology in C57BL/6 mice", "format": "in vivo", "conditions": "0.36-0.18-0.09 mg/mouse intragastrically, enteric microparticles", "procedure": "For assess toxicology, C57BL/6 mice received intragastrically escalating doses of 0.36-0.18-0.09 mg/mouse of 3-IAld or 1ME3CA formulated in enteric microparticles for up to 3 weeks as shown in Table 3 below. At the end of treatment, mice were sacrificed, and tissue pathology blindly examined on different organs after PAS staining of different section from each organ. Sections of organs from 4 mice in each group were separately evaluated."}, "[4]": {"assay": "in vivo", "conditions": "C57BL/6, mouse, 18 mg/kg", "quoted_text": "(§1) A single-dose pharmacokinetic (PK) study was performed on healthy C57BL/6 mice to compare 1ME3CA and 3-IAld at 0.36 mg/topo dose. Untreated naïve mice were used as the control. […] Blood, obtained by cardiac puncture and collected into EDTA-containing tubes, and organs (brain, lung, intestine, liver and kidney) were assessed. All samples were stored at −80° C. until use. To evaluate 1ME3CA and 3-IAld for functional activity, the expression of AhR-downstream genes were concomitantly evaluated in these mice."}, "[5]": {"assay": "single-dose pharmacokinetic study in healthy C57BL/6 mice, tissues and serum by mass spectrometry", "quoted_text": "as §1"}, "[6]": {"conditions": "1-methylindole-3-carboxylic acid"}, "[7]": {"conditions": "1-methylindole-3-carboxylic acid 0.09, 0.18 or 0.36 mg/mouse every other day"}, "[8]": {"conditions": "1-methylindole-3-carboxylic acid 0.09-0.36 mg/mouse"}, "[9]": {"conditions": "3-IAld 18 mg/kg, colon homogenates"}, "[10]": {"conditions": "3-IAld 18 mg/kg, surviving mice, 14 days"}, "[11]": {"conditions": "Eudragit-formulated 3-IAld 18 mg/kg intragastrically every other day"}}, "note": "Entries after “also recorded” stand apart in the source; their conditions may differ.", "data": [{"smiles": "Cn1cc(C(=O)O)c2ccccc21", "note": "[1-methylindole-3-carboxylic acid, 1-Methyl-1H-indole-3-carboxylic acid]", "values": [{"measurement": "inflammatory pathology, dose dependence", "setting": "[1]; 0.09-0.045-0.022 mg/mouse", "result": "protects from inflammatory pathology"}, {"measurement": "lymphocytic infiltration, dose dependence", "setting": "[1]; listed as 1ME3CA", "result": "reduces lymphocytic infiltration in anti-CTLA-4-treated mice in a dose-dependent manner"}, {"measurement": "lymphocytic infiltration, dose dependence", "setting": "[1]; listed as MECA", "result": "reduces lymphocytic infiltration"}, {"measurement": "Il1b expression in the colon", "setting": "[1]; [6]", "result": "reduced levels"}, {"measurement": "Il10 expression in the colon", "setting": "[1]; [6]", "result": "increased levels"}, {"measurement": "anti-inflammatory state and AhR activation", "setting": "[1]; [6]", "result": "promotes an anti-inflammatory state and AhR activation"}, {"measurement": "clinical morbidity and rectal bleeding", "setting": "[1]; [7]", "result": "protected"}, {"measurement": "disease activity index", "setting": "[1]; [7]", "result": "decreased"}, {"measurement": "CD3+ T cell (lymphocytic) infiltration in the lung", "setting": "[1]; [8]", "result": "effective in reducing; also recorded: reduces lymphocytic infiltration"}, {"measurement": "CD3+ T cell infiltration in the ileum and colon", "setting": "[1]; [8]", "result": "significantly reduced"}, {"measurement": "gut inflammatory pathology (overall)", "setting": "[1]; [8]", "result": "prevent gut inflammatory pathology; also recorded: protects from inflammatory pathology"}, {"measurement": "normal architectural structure of the colon and ileum", "setting": "[1]; [8]", "result": "recovery"}, {"measurement": "epithelial barrier function (expression of ZO-1)", "setting": "[1]; 1-methylindole-3-carboxylic acid 0.09-0.36 mg/mouse, colon and ileum", "result": "maintenance"}, {"measurement": "expression of the AhR-dependent genes Cyp1a1, the antimicrobial peptide Reg3g, and 1122", "setting": "[1]; 1-methylindole-3-carboxylic acid, listed as 1-Methylindole-3-Carboxylic Acid", "result": "Potent Activator"}, {"measurement": "expression of the AhR-dependent genes Cyp1a1, the antimicrobial peptide Reg3g, and 1122", "setting": "[1]; 1-methylindole-3-carboxylic acid, listed as 1-methylindole-3-carboxylic", "result": "induced the expression"}, {"measurement": "body weight loss", "setting": "[1]; Eudragit-formulated 1-methylindole-3-carboxylic acid 0.09, 0.18 or 0.36 mg/mouse intragastrically every other day", "result": "significant attenuation"}, {"measurement": "effects at each administered dose", "setting": "[1]; each dose including 0.09 mg/mouse", "result": "Positive effects"}, {"measurement": "efficacy dose", "setting": "[1]", "result": 2.25, "unit": "mg/kg"}, {"measurement": "time of peak levels as metabolite of 3-IAld", "setting": "[2]; same kinetics as indole-3-formic acid", "result": 30, "unit": "min"}, {"measurement": "tissue pathology in different organs (PAS)", "setting": "[3]", "result": "absence of visible tissue pathology"}, {"measurement": "Tmax", "setting": "[4]; in vivo", "result": 0.5, "unit": "h"}, {"measurement": "detectability at 6 hours in serum, lung, and kidneys", "setting": "[5]; after enteric 1ME3CA 18 mg/Kg", "result": "undetectable"}, {"measurement": "Cmax values", "setting": "[5]; after enteric 1ME3CA 18 mg/Kg, all organs and serum", "result": "very similar"}, {"measurement": "levels 24 hours after the administration in intestine, liver and brain", "setting": "[5]; after enteric 1ME3CA 18 mg/Kg, versus control", "result": "still higher than control"}, {"measurement": "systemic levels versus those after oral 3-IAld", "setting": "[5]; after oral 1ME3CA", "result": "more sustained and, as expected, significantly higher"}, {"measurement": "clearance of metabolites from the organs", "setting": "[5]; after oral 3-IAld 18 mg/Kg", "result": "rapid clearance"}, {"measurement": "concentrations in the intestine, serum, and kidney", "setting": "[5]; after oral 3-IAld 18 mg/Kg", "result": "basal"}, {"measurement": "level 24 hours after administration of 3-IAld", "setting": "[5]; mice administered with 3-IAld", "result": "had disappeared"}]}, {"smiles": "O=Cc1c[nH]c2ccccc12", "note": "[3-IAld, 1H-indole-3-carbaldehyde]", "values": [{"measurement": "anti-inflammatory state", "setting": "[1]; 3-IAld 18 mg/kg", "result": "promotes an anti-inflammatory state"}, {"measurement": "epithelial barrier integrity", "setting": "[1]; 3-IAld 18 mg/kg", "result": "provides epithelial barrier integrity"}, {"measurement": "expression of IL-22 (gene and protein)", "setting": "[1]; 3-IAld 18 mg/kg", "result": "induced expression"}, {"measurement": "expression of Lgr5, Nfil3 and Muc1", "setting": "[1]; 3-IAld 18 mg/kg", "result": "promoted the expression"}, {"measurement": "expression of the AhR-dependent genes Cyp1a1 and Ahrr", "setting": "[1]; 3-IAld 18 mg/kg", "result": "induced expression"}, {"measurement": "expression of the antimicrobial peptide Reg37", "setting": "[1]; 3-IAld 18 mg/kg", "result": "induced expression"}, {"measurement": "gut inflammatory pathology (overall)", "setting": "[1]; 3-IAld 18 mg/kg intragastrically every other day", "result": "prevent gut inflammatory pathology; also recorded: protects from inflammatory pathology"}, {"measurement": "amounts of IL-10", "setting": "[1]; [9]", "result": "increased amounts"}, {"measurement": "levels of TNF-α, IL-10 and IL-17A", "setting": "[1]; [9]", "result": "reduced levels"}, {"measurement": "levels of calprotectin", "setting": "[1]; [9]", "result": "reduced"}, {"measurement": "passage of dextran-FITC across the intestinal barrier", "setting": "[1]; 3-IAld 18 mg/kg, serum", "result": "reduced"}, {"measurement": "epithelial barrier function (expression of ZO-1)", "setting": "[1]; [10]", "result": "recovery"}, {"measurement": "epithelial cell proliferation and renewal (Ki-67 staining)", "setting": "[1]; [10]", "result": "recovery"}, {"measurement": "gross pathology", "setting": "[1]; [10]", "result": "improved"}, {"measurement": "normal architecture structure of the colon", "setting": "[1]; [10]", "result": "recovery"}, {"measurement": "body weight", "setting": "[1]; [11]", "result": "increased"}, {"measurement": "disease activity index", "setting": "[1]; [11]", "result": "decreased"}, {"measurement": "survival", "setting": "[1]; [11]", "result": "increased"}, {"measurement": "efficacy dose", "setting": "[1]", "result": 18, "unit": "mg/kg"}, {"measurement": "labelled 3-IAld serum level at 2 h", "setting": "[2]; in vivo", "result": "sharply reduced levels"}, {"measurement": "metabolic conversion", "setting": "[2]; in vivo", "result": "rapid metabolic conversion"}, {"measurement": "time of peak of labelled 3-IAld in serum", "setting": "[2]; in vivo", "result": "30 to 60", "unit": "min"}, {"measurement": "tissue pathology in different organs (PAS)", "setting": "[3]", "result": "absence of visible tissue pathology"}, {"measurement": "half-life", "setting": "[4]; po", "result": "3 to 5", "unit": "h"}, {"measurement": "concentrations in all organs", "setting": "[5]; after enteric 1ME3CA 18 mg/Kg", "result": "basal"}, {"measurement": "disappearance of 3-IAld from tissues", "setting": "[5]; single oral 18 mg/Kg 3-IAld, enteric microparticles, after 2 hours, most tissues", "result": "rapidly disappeared"}]}]}
